One data set deals with H4. Briefly: Luminescence Cell-Based Dose Response HTS to Identify Activators of 5'UTR Stem-Loop Driven Prion Protein mRNA Translation in H4 Neuroglioblastoma Cells. [Related pubchem assays: 1829 (Project Summary), 1814 (Primary HTS)]. The class given is functional. The settings on record: Homo sapiens.
A short description of data set [1]: Luminescence Cell-Based Dose Response HTS to Identify Activators of Luciferase Translation or Activity in H4 […] Cells. [Related pubchem assays: 1829 (Project Summary), 1814 (Primary HTS)]. The format is functional.
In a further data set the target is Cytochrome P450 3A4 (Homo sapiens, UniProt P08684).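 Also: CYP3A4 tested as one member of a cytochrome P450 panel screen.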
Chain of Cytochrome P450 3A4 (P08684 whole entry): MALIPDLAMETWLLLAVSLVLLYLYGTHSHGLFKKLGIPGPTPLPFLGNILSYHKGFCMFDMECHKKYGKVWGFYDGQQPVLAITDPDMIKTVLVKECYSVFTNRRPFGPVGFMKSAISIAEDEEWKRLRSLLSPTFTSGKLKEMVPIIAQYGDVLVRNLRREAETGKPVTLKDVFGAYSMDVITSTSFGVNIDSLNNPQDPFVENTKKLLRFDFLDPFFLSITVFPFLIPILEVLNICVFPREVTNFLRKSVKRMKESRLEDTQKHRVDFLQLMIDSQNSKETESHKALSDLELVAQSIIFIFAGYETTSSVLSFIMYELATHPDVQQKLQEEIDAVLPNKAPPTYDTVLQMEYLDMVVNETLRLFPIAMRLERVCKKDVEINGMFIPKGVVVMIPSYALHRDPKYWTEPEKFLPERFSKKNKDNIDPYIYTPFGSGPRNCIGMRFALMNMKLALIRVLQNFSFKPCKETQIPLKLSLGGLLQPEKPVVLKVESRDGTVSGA
In another data set the target is Cytochrome P450 2C19 (Homo sapiens, UniProt P33261). Briefly: Cytochrome panel assay with activity outcomes. Panel member name: p450-cyp2c19 Compounds with AC50 equal or less than 10 uM are considered active. The format is functional.
Chain of Cytochrome P450 2C19 (P33261 whole entry): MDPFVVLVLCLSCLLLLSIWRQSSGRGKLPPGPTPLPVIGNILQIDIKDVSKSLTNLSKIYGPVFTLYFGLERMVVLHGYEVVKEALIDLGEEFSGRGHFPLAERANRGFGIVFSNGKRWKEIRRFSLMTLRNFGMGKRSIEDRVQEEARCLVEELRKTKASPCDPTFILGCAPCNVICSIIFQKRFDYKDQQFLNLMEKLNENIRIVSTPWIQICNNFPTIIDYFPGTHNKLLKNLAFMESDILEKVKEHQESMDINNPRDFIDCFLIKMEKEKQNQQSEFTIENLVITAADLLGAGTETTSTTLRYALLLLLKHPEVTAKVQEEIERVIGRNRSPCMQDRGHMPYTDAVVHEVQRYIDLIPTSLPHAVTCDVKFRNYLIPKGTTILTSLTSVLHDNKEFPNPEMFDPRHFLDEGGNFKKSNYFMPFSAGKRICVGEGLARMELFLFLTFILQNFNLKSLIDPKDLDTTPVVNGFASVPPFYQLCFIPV
Another data set addresses Cytochrome P450 2C9 (Homo sapiens, UniProt P11712).
A further data set addresses T1, Cytochrome P450 1A2 (Homo sapiens, UniProt P05177).
T1 sequence (P05177 whole entry): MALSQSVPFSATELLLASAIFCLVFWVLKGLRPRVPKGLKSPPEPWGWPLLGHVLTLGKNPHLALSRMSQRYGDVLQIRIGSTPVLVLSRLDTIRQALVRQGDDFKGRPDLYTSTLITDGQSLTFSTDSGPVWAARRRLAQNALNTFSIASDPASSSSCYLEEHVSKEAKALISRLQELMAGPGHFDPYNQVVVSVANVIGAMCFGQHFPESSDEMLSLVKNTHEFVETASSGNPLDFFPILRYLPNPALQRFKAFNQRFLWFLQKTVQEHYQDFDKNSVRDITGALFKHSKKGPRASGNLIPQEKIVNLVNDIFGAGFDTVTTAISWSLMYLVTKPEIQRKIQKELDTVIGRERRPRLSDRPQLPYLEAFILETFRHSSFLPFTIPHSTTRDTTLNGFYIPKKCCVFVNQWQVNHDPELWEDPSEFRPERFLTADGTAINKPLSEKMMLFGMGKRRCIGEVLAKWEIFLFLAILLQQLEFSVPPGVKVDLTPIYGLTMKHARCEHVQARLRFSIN

Data set [2] can be described thus: HEp-2 cell cytotoxicity, dose response, cytotoxicity control for RSV inhibitor project, HTS (AID 2410). The format is functional. The settings on record: human respiratory syncytial virus.
The target in the next data set is Cytochrome P450 2D6 (Homo sapiens, UniProt P10635).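 Also: CYP2D6 member of a cytochrome P450 panel assay.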
Chain of Cytochrome P450 2D6 (P10635 whole entry): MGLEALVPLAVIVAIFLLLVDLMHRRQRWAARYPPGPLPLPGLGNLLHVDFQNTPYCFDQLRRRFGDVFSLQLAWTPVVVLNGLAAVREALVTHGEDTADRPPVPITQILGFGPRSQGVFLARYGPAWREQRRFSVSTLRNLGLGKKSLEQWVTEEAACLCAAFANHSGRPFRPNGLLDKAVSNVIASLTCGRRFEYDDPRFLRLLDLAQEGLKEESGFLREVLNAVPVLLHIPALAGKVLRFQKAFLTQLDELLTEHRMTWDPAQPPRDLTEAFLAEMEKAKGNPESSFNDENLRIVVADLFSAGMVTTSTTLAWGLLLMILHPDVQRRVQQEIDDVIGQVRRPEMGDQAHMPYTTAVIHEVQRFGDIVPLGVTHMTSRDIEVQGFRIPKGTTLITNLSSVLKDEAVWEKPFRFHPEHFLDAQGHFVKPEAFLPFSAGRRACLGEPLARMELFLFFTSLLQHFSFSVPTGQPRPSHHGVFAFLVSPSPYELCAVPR
Data set [3] concerns the target T2, Corticotropin-releasing factor receptor 2/Corticotropin-releasing factor-binding protein (Homo sapiens, UniProt P24387+Q13324).
T2 sequence (Q13324 whole entry): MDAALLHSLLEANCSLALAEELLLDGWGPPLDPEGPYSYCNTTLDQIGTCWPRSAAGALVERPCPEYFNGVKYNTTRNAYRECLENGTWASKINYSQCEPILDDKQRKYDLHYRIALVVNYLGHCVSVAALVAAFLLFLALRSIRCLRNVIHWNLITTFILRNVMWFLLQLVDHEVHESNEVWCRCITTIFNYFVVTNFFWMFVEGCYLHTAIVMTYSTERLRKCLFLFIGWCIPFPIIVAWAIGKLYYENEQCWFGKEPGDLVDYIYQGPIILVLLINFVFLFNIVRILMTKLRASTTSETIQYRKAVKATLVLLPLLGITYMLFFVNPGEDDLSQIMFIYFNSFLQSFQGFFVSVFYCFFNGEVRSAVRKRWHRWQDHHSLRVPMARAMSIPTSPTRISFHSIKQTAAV
T2 sequence (P24387 whole entry): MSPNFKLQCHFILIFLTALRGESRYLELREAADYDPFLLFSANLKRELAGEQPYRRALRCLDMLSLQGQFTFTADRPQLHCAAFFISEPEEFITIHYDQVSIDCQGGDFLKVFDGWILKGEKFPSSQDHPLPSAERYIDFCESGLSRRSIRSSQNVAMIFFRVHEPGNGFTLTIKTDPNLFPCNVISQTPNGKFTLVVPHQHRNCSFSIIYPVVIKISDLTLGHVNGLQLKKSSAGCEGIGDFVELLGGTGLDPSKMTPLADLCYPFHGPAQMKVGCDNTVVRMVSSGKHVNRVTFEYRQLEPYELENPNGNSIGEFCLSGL
Briefly: activators of CRF receptor 2 with binding protein – uHTS hits, confirmation (AID 602473). The class given is functional. The settings on record: read-out: EC50_Mean.

Another data set can be described thus: cells. The class given is functional.

Active and inactive are the calls of the source.

Chain of Cytochrome P450 2C9 (P11712 whole entry): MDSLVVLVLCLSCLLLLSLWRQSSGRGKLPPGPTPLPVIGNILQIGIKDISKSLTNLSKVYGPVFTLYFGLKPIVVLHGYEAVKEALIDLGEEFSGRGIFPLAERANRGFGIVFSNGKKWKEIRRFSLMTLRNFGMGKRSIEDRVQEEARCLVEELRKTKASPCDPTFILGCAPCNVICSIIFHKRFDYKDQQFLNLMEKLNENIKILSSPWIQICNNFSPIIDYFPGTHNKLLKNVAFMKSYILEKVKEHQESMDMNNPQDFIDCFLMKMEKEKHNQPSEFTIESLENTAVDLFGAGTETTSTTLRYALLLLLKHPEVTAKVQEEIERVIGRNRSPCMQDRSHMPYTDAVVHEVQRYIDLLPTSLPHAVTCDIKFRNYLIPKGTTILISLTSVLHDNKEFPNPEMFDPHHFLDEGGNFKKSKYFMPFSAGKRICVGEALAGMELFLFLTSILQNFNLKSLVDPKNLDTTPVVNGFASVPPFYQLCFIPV

Take `N=C(NOC(=O)c1ccco1)c1ccccc1`: the EC50 with H4 was > 120 µM (not active); in data set [1], 47.4 µM (active).
In the case of `O=[N+]([O-])c1ccccc1CSc1nc(O)c2nc[nH]c2n1`, the AC50 at Cytochrome P450 3A4 is 3.98 µM (inconclusive).
As to `CCOC(=O)c1c(C)[nH]c2ccc3c(c12)CN1CCc2cc(OC)ccc2[C@@H]1O3`, the values for the AC50 result on Cytochrome P450 2C19 and on Cytochrome P450 3A4 were “inconclusive” and 2.51 µM (inconclusive), respectively.
For `Clc1ccccc1-c1cc(NCc2cccnc2)ncn1`, at Cytochrome P450 3A4, the AC50 is 10 µM (inconclusive).
As for `COc1cccc(Cn2c(=O)c(-c3ccccc3)nc3cnc(N(C)C)nc32)c1`, the figures for the AC50 at Cytochrome P450 2C9 and at Cytochrome P450 1A2 were 15.8 µM (inconclusive) and 10 µM (inconclusive), respectively.
On to `CCNc1oc(-c2cccc3ccccc23)nc1C#N`, for which the CC50 in data set [2] was > 50 µM (active).
Take `CCCCOc1ccc(S(=O)(=O)NNC(=O)C2Cc3c(ccc4ccccc34)O2)cc1` (stereo not drawn): the CC50 in data set [2] is 27.1 µM (active).
With `Cc1ccc(C)c(S(=O)(=O)N2CCC(c3nc(O)c4nnn(Cc5ccc(F)cc5)c4n3)CC2)c1`, the AC50 on Cytochrome P450 2D6 was 14.1 µM (inconclusive).
As to `Cn1c2c(c3ccccc31)CC/C2=N\O`, in [2], the CC50 was 38.5 µM (active).
Regarding `O=C(NC(C(=O)N/N=C/c1ccccc1)c1nnc(O)c2ccccc12)c1ccccc1` (stereo not drawn), the EC50 in data set [3] was 5.14 µM (active).
Turning to `Brc1c(CSc2nncc3ccccc23)nc2ccccn12`, the IC50 in the data set “cells” is 5.43 µM (active).
Turning to `CCn1c(-c2ccc(-c3ccccc3)cc2)cnc1S`, the CC50 in data set [2] was 18.9 µM (active).
For `CNc1nc(-c2ccccc2OC)nc2ccccc12`, the AC50 result on Cytochrome P450 2C19 was “inconclusive”; at Cytochrome P450 3A4 it was 31.6 µM (inconclusive).
Consider `OC(CNCCc1ccc(Cl)cc1)COc1cc(Cl)ccc1Cl` (stereo not drawn), for which the CC50 in data set [2] is 15.6 µM (active).
Turning to `CCOc1ccc(C(C)=O)cc1N1C(=O)C2C3C=CC(C3=C(C)C)C2C1=O` (stereo not drawn), the figures for the AC50 on Cytochrome P450 2C9, at Cytochrome P450 2C19 (read-out: AC50) and on Cytochrome P450 1A2 were 5.62 µM (inconclusive), 25.1 µM (inconclusive) and 0.0631 µM (inconclusive), respectively.
On to `O=C(CN1C(=O)c2cccc3cccc(c23)C1=O)N1CCCCCC1`, for which the AC50 at Cytochrome P450 2C9 was 22.4 µM (inconclusive).
As to `OC(COc1ccccc1Cl)CN1CCN(CC(O)COc2ccccc2Cl)CC1` (stereo not drawn), the IC50 in the data set “cells” was 17.3 µM (active).
For `CC(C)NCC[C@@H](O)c1cc2ccccc2o1`, the AC50 on Cytochrome P450 2D6 was 3.16 µM (inconclusive).
Turning to `CN(C)c1ccc(/C=C/C(=O)c2ccc(O)cc2)cc1`, the EC50 in data set [3] is 5.34 µM (active).
Take `COc1ccc(CCNc2cc(-c3ccccc3)nc3ncnn23)cc1`: the IC50 in “cells” was 2.48 µM (active).
As to `CCCn1nnnc1NC(=O)c1ccc(C)cc1Cl`, the figures for the AC50 on Cytochrome P450 2C9 and at Cytochrome P450 1A2 were 0.2 µM (inconclusive) and 10 µM (inconclusive), respectively.
As for `COC(=O)[C@@]1(Cc2ccc(OC)cc2)[C@H]2c3cc(C(=O)N(C)C)n(Cc4ccc(C)c(F)c4F)c3C[C@H]2CN1C(=O)c1ccccc1`, at Cytochrome P450 2D6, the AC50 is 12.6 µM (inconclusive).
Take `Cc1ccc(C(=O)NN2CCOCC2)cc1`: the half-maximal activity concentration (AC50) on Cytochrome P450 2D6 was 0.224 µM (inconclusive).
Take `N#Cc1nc(-c2ccco2)oc1N1CCN(c2cccc(Cl)c2)CC1`: in [2], the CC50 is 31.8 µM (active).
In the case of `CN1CC(c2ccccn2)C2(SC(=S)N(Cc3ccccc3)C2=O)C12C(=O)Nc1ccccc12` (stereo not drawn), at Cytochrome P450 2D6, the AC50 is 28.2 µM (inconclusive).
With `CS(=O)(=O)Nc1cccc(-c2cncnc2Nc2ccccc2)c1`, on Cytochrome P450 2D6, the AC50 was 25.1 µM (inconclusive).
For `Cc1nc(NC(=O)CSc2cc(C)c3ccccc3n2)c(Cl)cc1Cl`, in [2], the CC50 is > 50 µM (active).
With `COc1cccc(-c2nc(Nc3ccncc3)c3ccccc3n2)c1`, the AC50 on Cytochrome P450 2D6 was 25.1 µM (inconclusive).
Regarding `COc1ccc(CCNC(=O)c2ccc3c(c2)OCCO3)cc1`, in the data set on H4, the EC50 is 66.7 µM (active).
`CN(C)Cc1ccccc1-c1nc(NCc2cccs2)c2ccccc2n1`: at Cytochrome P450 3A4, the AC50 was 6.31 µM (inconclusive).
Turning to `NC(=O)COC(=O)c1sc2ccccc2c1Cl`, the IC50 in “cells” is 37.6 µM (active).
Regarding `CCC(=O)Nc1nnc(SCC(=O)c2ccc3c(c2)Cc2ccccc2-3)s1`, the CC50 in data set [2] is 42 µM (active).
Take `COc1cccc(-c2ccc3ncnc(N4CCOCC4)c3c2)c1`: at Cytochrome P450 2D6, the AC50 is 31.6 µM (inconclusive).
For the compound `COc1ccc(NC(=O)N2CC[C@@]3(CCCN(S(C)(=O)=O)C3)C2)cc1`, the AC50 is 39.8 µM (inconclusive) on Cytochrome P450 3A4 and 25.1 µM (inconclusive) on Cytochrome P450 1A2.
`O=C(C1CCCN(c2ncnc3c2nc2n3CCCCC2)C1)N1CCN(c2cccc(Cl)c2)CC1` (stereo not drawn): in data set [2], the CC50 is 11.7 µM (active).
Consider `COc1ccc(-c2[nH]ncc2CN2CCCCCCC2)c(OC)c1`, for which the IC50 in “cells” is 18.5 µM (active).
Turning to `Oc1ccc2c3c1O[C@H]1c4[nH]c5ccccc5c4C[C@]4(O)[C@H](C2)N(CC2CC2)CC[C@@]314`, the AC50 on Cytochrome P450 3A4 was 0.01 µM (inconclusive).
As for `O=C(Nc1ccccc1N1CCOCC1)c1cnccn1`, the AC50 on Cytochrome P450 2C19 (read-out: AC50) is 0.0398 µM (inconclusive); on Cytochrome P450 3A4 it was 14.1 µM (inconclusive).
For `CCC(=O)n1nc(-c2ccc(OC)cc2)nc1N`, the AC50 at Cytochrome P450 2C9 was 0.0562 µM (inconclusive).
With `Cc1ccc(NCCC(=O)c2ccc(Cl)cc2)cc1C`, the AC50 at Cytochrome P450 3A4 is 3.55 µM (inconclusive).
Consider `O=C(Nc1ccc(F)cc1F)c1cc2ccccc2oc1=O`, for which the IC50 in the data set “cells” is 39.7 µM (active).
As for `CCOC(=O)C1=C(O)/C(=C\c2ccc(OC)c(OC)c2)N=C1C`, the AC50 is 39.8 µM (inconclusive) on Cytochrome P450 2C19 (read-out: AC50), 15.8 µM (inconclusive) at Cytochrome P450 3A4 and 8.91 µM (inconclusive) at Cytochrome P450 1A2.
Take `COc1cc([C@H](O)CO)ccc1O`: at Cytochrome P450 3A4, the AC50 was 0.0316 µM (inconclusive).
As to `N#Cc1ccc(OCC(=O)Nc2ccncc2)cc1`, the CC50 in [2] was 14.7 µM (active).
Take `CC(C)OC(=O)CSc1nc(-c2ccc(F)cc2)nc2ccc(F)cc12`: the AC50 is 0.0178 µM (inconclusive) on Cytochrome P450 2C9 and 0.112 µM (inconclusive) on Cytochrome P450 2C19 (read-out: AC50).
In the case of `CCOC(=O)c1nnn(-c2nc(OC)nc(N3CCCCC3)n2)c1-c1ccccc1`, the AC50 on Cytochrome P450 2C9 is 28.2 µM (inconclusive); at Cytochrome P450 1A2 it was 14.1 µM (inconclusive).
For `O=C(Cc1ccc(Cl)c(Cl)c1)OCCN1CCCC1`, the AC50 at Cytochrome P450 2D6 was 31.6 µM (inconclusive).
In the case of `COc1ccc(-c2c(C)c3ccc(O)cc3oc2=O)cc1`, the CC50 in data set [2] was 20.9 µM (active).
With `O=C(N/N=C/c1ccc(Br)s1)c1ccncc1`, the 50% inhibitory concentration (IC50) in the data set “cells” is < 0.1 µM (active).
For the compound `Cc1ccc(S(=O)(=O)N(C)CC(=O)NCCCc2ccccc2)cc1`, the EC50 in data set [3] is > 53 µM (inactive).
For `CCOC(=O)c1nc(O)c2c3c(sc2n1)CC(C)CC3` (stereo not drawn), the half-maximal inhibitory concentration (IC50) in “cells” is 4.55 µM (active).
As for `CCOc1ccc2[nH]c3ccc4nonc4c3c2c1`, the CC50 in data set [2] was > 50 µM (active).
Consider `CCN(CC)C(=O)CSc1nc2ccc(NC(=O)CSc3nnc(COc4ccccc4C)n3C)cc2s1`, for which the AC50 on Cytochrome P450 2D6 was 14.1 µM (inconclusive).
As to `CN(C)C(=O)c1ccc(-c2cc(NCc3ccccc3)ncn2)cc1`, the AC50 is 39.8 µM (inconclusive) on Cytochrome P450 2D6 and 12.6 µM (inconclusive) at Cytochrome P450 1A2.
Turning to `Cc1cccc(CNc2ncncc2-c2cccc(C#N)c2)c1`, at Cytochrome P450 2D6, the AC50 was 31.6 µM (inconclusive).
Take `CCOc1c2ccc(C(=O)NCc3cc(C(F)(F)F)cc(C(F)(F)F)c3)cc2nn1C`: the AC50 at Cytochrome P450 2C9 was 31.6 µM (inconclusive); on Cytochrome P450 2D6 it was 20 µM (inconclusive); at Cytochrome P450 1A2 it was 17.8 µM (inconclusive).
As for `Cc1ccc(OCC(=O)Nn2cnc3ccccc32)cc1`, the AC50 at Cytochrome P450 2D6 was 10 µM (inconclusive).

For orientation: AC50 means the concentration giving half of the maximal activity seen. As a reminder, the CC50 is the concentration that lowers cell viability or growth by half. A word on the IC50: it is the concentration that inhibits the measured activity by half.
